Paper PMC8565778, “Evaluation of health benefits of sea lamprey (Petromyzon marinus) isolates using in vitro antiinflammatory and antioxidant assays” (PLoS ONE, 2021)

What was measured:
[1] = biological target: T1, COX-1 (cyclooxygenase enzyme-1) (Ovis aries, UniProt P05979); assay: in vitro COX-1 enzyme inhibitory assay, single concentration […]; assay type: biochemical; settings: read-out: Bioassay results / COX-1^a
T1 construct: gene PTGS1
T1 sequence (P05979 25-600): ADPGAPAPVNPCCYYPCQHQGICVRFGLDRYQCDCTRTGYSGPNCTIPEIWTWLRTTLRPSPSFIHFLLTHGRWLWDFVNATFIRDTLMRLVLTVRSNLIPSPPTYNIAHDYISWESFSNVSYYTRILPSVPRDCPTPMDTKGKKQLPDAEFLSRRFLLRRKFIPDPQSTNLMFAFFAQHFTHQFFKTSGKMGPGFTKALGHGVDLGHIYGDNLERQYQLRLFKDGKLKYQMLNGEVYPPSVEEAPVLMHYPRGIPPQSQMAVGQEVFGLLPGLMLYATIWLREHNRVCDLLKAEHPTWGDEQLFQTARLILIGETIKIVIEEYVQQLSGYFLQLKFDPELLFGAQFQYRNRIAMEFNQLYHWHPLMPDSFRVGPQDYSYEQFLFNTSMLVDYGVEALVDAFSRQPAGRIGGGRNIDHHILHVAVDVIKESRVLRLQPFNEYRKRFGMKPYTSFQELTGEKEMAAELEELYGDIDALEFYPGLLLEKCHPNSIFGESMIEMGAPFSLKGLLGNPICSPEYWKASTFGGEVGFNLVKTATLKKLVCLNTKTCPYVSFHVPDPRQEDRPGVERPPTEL

[2] = biological target: T1, COX-1 (cyclooxygenase enzyme-1); assay: biochemical; settings: read-out: Bioassay results / COX-1^a
[3] = biological target: T2, COX-2 (cyclooxygenase enzyme-2) (Homo sapiens, UniProt P35354); assay: biochemical; settings: read-out: Bioassay results / COX-2 ^a
T2 construct: gene PTGS2
T2 sequence (P35354 18-604): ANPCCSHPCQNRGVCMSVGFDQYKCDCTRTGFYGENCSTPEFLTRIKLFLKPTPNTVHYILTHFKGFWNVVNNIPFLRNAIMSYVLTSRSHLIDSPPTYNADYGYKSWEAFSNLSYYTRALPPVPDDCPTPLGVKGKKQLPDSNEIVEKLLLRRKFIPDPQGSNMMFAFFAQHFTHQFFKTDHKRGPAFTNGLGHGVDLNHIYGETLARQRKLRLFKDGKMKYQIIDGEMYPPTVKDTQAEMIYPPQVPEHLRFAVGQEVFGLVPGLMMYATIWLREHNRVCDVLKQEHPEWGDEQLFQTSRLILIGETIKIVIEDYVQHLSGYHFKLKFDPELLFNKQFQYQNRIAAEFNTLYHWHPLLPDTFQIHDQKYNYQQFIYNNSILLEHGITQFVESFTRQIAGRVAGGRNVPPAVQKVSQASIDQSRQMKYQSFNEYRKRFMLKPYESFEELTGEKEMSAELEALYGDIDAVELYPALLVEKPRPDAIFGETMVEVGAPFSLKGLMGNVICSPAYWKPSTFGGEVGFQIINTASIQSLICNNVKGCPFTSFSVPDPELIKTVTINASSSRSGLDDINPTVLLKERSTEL

[4] = set-up: Fe2+-induced liposome lipid peroxidation; per cent inhibition measured as loss of fluorescent probe signal; settings: large unilamellar vesicles; LPO (lipid peroxidation of large unilamellar liposomes, Fe2+-initiated); 25 ug/mL; inhibitor
Protocol: Pure compounds and positive controls were assayed for LPO inhibitory activities according to published procedures from our laboratory (see S1 File for experimental details). The antioxidant assay, the lipid peroxidation inhibitory (LPO) assay, used in this study measures free radical scavenging capability of pure compounds and extracts. In this assay, peroxidation of the lipid was initiated by the addition of Fe^2+ resulting in the generation of radicals, which cause the peroxidation of LUV and in turn the fluorescent probes embedded in it. The loss of fluorescent intensity in the assay indicates the oxidative damage to the lipid component of the LUV [11–15, 21] (S1 File). At 25 μg/mL concentration, cholesteryl palmitate, cholesteryl oleate, cholesteryl eicosapentaenoate and cholesteryl arachidonate inhibited LPO by 38, 60, 72 and 82%, respectively (Table 2) (Fig S in S1 File). The most abundant steroidal compound in sea lamprey was cholesterol and it lacked LPO inhibitory activity. Antioxidant activity profiles of the cholesterol esters were like its antiinflammatory profiles. That is, an increase in chain length and unsaturation increased the LPO activity. Majority of the lipophilic fraction of the sea lamprey extract consisted of glycerides and free fatty acids.

[5] = biological target: T2, COX-2 (cyclooxygenase enzyme-2); assay: biochemical; set-up: In vitro cyclooxygenase (COX-1 and COX-2) enzyme inhibition assay, percent inhibition; settings: read-out: % inhibition
[6] = biological target: T1, COX-1 (cyclooxygenase enzyme-1); assay: biochemical; set-up: In vitro cyclooxygenase (COX-1 and COX-2) enzyme inhibition assay, percent inhibition; settings: read-out: % inhibition
Protocol: (see S1 File for experimental details). To evaluate the health-beneficial activity of the sea lamprey compounds, we included all isolates of sea lamprey extract for the evaluation of in vitro antiinflammatory and antioxidant activities. […] (S1 File). […] Antiinflammatory activities of arginine, tyrosine, tryptophan, asparagine and inosine were assayed at 50 μg/mL concentration.

SMILES | % inhibition [4] [%] | also measured
CC(C)Cc1ccc(C(C)C(=O)O)cc1 (stereo not shown) [compound 4, Ibuprofen] | – | inhibition at 15 µg/mL [1]: 56.4%
COc1ccc2cc([C@H](C)C(=O)O)ccc2c1 [compound 3, Naproxen] | – | inhibition at 12 µg/mL [2]: 61.4%; inhibition at 12 µg/mL [3]: 60.5%
N[C@@H](CC(=O)O)C(=O)O [compound 33, Aspartic acid] | 36.5 ± 0.7 | –
CC(C)[C@H](N)C(=O)O [compound 18, Valine] | 18.5 ± 0.7 | –
CC/C=C\C/C=C\C/C=C\C/C=C\C/C=C\CCCC(=O)O[C@H]1CC[C@@]2(C)C(=CC[C@H]3[C@@H]4CC[C@H]([C@H](C)CCCC(C)C)[C@@]4(C)CC[C@@H]32)C1 [compound 10, Cholesteryl eicosapentaenoate] | 72.0 ± 1.4 | inhibition at 25 µg/mL [5]: 58.5 ± 1.7%; inhibition at 25 µg/mL [6]: 63.9 ± 2.1%
N=C(N)NCCC[C@H](N)C(=O)O [compound 17, Arginine] | 22.0 ± 1.4 | –
NC(=O)C[C@H](N)C(=O)O [compound 27, Asparagine] | 28.0 ± 1.4 | –
CCCCC/C=C\C/C=C\C/C=C\C/C=C\CCCC(=O)O[C@H]1CC[C@@]2(C)C(=CC[C@H]3[C@@H]4CC[C@H]([C@H](C)CCCC(C)C)[C@@]4(C)CC[C@@H]32)C1 [compound 11, Cholesteryl arachidonate] | 82.0 ± 1.4 | inhibition at 25 µg/mL [5]: 67.9 ± 2.2%; inhibition at 25 µg/mL [6]: 74.7 ± 0.4%
N[C@@H](Cc1ccc(O)cc1)C(=O)O [compound 20, Tyrosine] | 55.0 ± 1.4 | –
CC(C)C[C@H](N)C(=O)O [compound 19, Leucine] | 19.5 ± 0.7 | –
CC(=O)C(=O)O [compound 47, Pyruvic acid] | 23.5 ± 0.7 | –
